Tests used:
[1] = target: T1, Purine nucleoside phosphorylase (Homo sapiens, UniProt P00491); test: Inhibition of human PNP
T1 sequence (P00491 whole entry): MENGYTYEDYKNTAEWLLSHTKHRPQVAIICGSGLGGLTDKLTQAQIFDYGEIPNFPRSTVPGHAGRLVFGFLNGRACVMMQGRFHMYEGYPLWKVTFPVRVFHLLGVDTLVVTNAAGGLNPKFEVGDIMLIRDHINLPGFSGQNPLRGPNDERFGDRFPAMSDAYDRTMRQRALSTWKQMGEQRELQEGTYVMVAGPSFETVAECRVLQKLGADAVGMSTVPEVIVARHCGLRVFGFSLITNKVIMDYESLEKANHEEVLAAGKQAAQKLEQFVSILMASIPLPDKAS

[2] = target: T2, Purine nucleoside phosphorylase (Plasmodium falciparum, UniProt Q8T9Z7); test: Inhibition of Plasmodium falciparum PNP expressed in Escherichia coli BL21(DE3) cells by spectrophotometry
T2 sequence (Q8T9Z7 whole entry): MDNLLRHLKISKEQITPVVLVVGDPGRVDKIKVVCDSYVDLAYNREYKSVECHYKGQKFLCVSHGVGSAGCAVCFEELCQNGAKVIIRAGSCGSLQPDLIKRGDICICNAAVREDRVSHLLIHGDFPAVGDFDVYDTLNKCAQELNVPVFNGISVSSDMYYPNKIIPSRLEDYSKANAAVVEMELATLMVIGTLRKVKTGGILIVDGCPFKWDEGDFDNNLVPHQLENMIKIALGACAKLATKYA

[3] = tested on: Plasmodium falciparum; test: Antiplasmodial activity against erythrocytic stages of Plasmodium falciparum 3D7 after 48 hrs by SYBR green assay; type: functional, organism-based; conditions: 3D7, 48 h
[4] = target: Uridine phosphorylase 1 (Homo sapiens, UniProt Q16831); test: Inhibition of human uridine phosphorylase
Chain of Uridine phosphorylase 1 (Q16831 whole entry): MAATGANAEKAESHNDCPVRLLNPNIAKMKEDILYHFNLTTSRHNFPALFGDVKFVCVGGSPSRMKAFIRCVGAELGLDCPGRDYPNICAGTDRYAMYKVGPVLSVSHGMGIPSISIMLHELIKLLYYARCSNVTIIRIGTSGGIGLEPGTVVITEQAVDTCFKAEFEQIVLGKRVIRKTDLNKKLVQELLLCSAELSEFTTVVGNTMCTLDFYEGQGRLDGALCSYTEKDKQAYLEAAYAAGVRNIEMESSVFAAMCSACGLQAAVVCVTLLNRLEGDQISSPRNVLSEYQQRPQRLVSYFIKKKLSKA

Row | Compound | Kd [1] | IC50 [2] | Ki [2] | EC50 [3] | Ki [4]
1 | O=c1[nH]cnc2c(CN3CCCC3)c[nH]c12 | 0.0055 µM | – | – | – | –
2 | O=C1NC(=O)C(Cc2ccccc2)C(=O)N1 | – | > 1000 µM | – | – | –
3 | O=c1ccn(CCN2CCCC2)c(=O)[nH]1 | – | 141 µM | 27 µM | > 500 µM | –
4 | O=c1ccn(CCCN2CCCC2)c(=O)[nH]1 | – | 230 µM | 59 µM | > 1000 µM | –
5 | O=c1ccn(CCCN2CCC[C@H]2CO)c(=O)[nH]1 | – | 712 µM | 136 µM | 375 µM | –
6 | O=c1ccn(CCCCN2CCCC2)c(=O)[nH]1 | – | 524 µM | 105 µM | > 1000 µM | –
7 | O=c1ccn(CCCCN2CCC[C@H]2CO)c(=O)[nH]1 | – | 592 µM | 113 µM | > 1000 µM | –
8 | O=c1cc[nH]c(=O)n1CCN1CCCC1 | – | 42 µM | 6 µM | > 500 µM | –
9 | O=c1cc[nH]c(=O)n1CCN1CCC[C@H]1CO | – | 366 µM | 75 µM | > 1000 µM | –
10 | O=C1NC(=O)N(COCCO)C(=O)C1Cc1cccc(OCc2ccccc2)c1 (stereo not drawn) | – | > 1000 µM | 0.0011 µM | – | 0.0011 µM
11 | O=C1NC(=O)C(Cc2cccc(OCc3ccccc3)c2)C(=O)N1 | – | > 1000 µM | – | – | 2.3 µM

Source: ChEMBL document CHEMBL1275309, “Exploring new inhibitors of Plasmodium falciparum purine nucleoside phosphorylase” (Eur J Med Chem, 2010)
